# Reference: ChEMBL document CHEMBL1201862, “PubChem BioAssay data set” (2004)
#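 Cultured in 96-well plates, cells were exposed to test compound for 48 hours across five concentrations. At the GI50, growth is halved.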 Calls of active or inactive are those of the source. Cut-off read from the data, not from the text of the source: active = GI50 up to about 1.1 µM and inactive = higher.
# Assays:
# Assay in all cases: DTP human tumour cell line panel, 48 h
# [1] = test system: A498
# [2] = test system: ACHN
# [3] = test system: CCRF-CEM
# [4] = test system: HCT-116
# [5] = test system: HCT-15
# [6] = test system: MOLT-4
# [7] = test system: NCI-H226
# [8] = test system: NCI-H23
# [9] = test system: NCI-H460
# [10] = test system: SF-268
# [11] = test system: SK-MEL-5
# [12] = test system: SK-OV-3
# [13] = test system: T47D
# [14] = test system: UO-31
# [15] = test system: Malme-3M
# [16] = test system: OVCAR-4
# [17] = test system: SK-MEL-28
# [18] = test system: SK-MEL-2
# [19] = test system: SNB-19
# [20] = test system: BT-549
SMILES,GI50 [1],GI50 [2],GI50 [3],GI50 [4],GI50 [5] [µM],GI50 [6],GI50 [7],GI50 [8],GI50 [9],GI50 [10],GI50 [11],GI50 [12],GI50 [13],GI50 [14],GI50 [15],GI50 [16],GI50 [17],GI50 [18],GI50 [19],GI50 [20]
CCOC(=O)[C@@H]1ON2O[C@H](OC3CCCC3(c3ccccc3)c3ccccc3)C[C@H]3OC(=O)[C@@H]1C32 (stereo partly specified),35.2 µM (inactive),65.5 µM (inactive),26.3 µM (inactive),73.3 µM (inactive),48.3,45 µM (inactive),36.4 µM (inactive),27 µM (inactive),34 µM (inactive),95.9 µM (inactive),75.9 µM (inactive),> 100 µM (inactive),26.1 µM (inactive),37.6 µM (inactive),–,–,–,–,–,–
Clc1ccc(Cl)c(/N=N/c2cc3c4c(c2)CCCN4CCC3)c1,> 10 µM (inactive),> 10 µM (inactive),> 10 µM (inactive),> 10 µM (inactive),> 10,> 10 µM (inactive),> 10 µM (inactive),> 10 µM (inactive),> 10 µM (inactive),> 10 µM (inactive),> 10 µM (inactive),> 10 µM (inactive),> 10 µM (inactive),> 10 µM (inactive),> 10 µM (inactive),> 10 µM (inactive),> 10 µM (inactive),> 10 µM (inactive),> 10 µM (inactive),–
OC(c1ccccc1)c1c(-c2ccccc2)oc(-c2ccccc2)c1C(O)c1ccccc1 (stereo unspecified),16.8 µM (inactive),6.14 µM (inactive),3.73 µM (inactive),5.65 µM (inactive),12.1,5.06 µM (inactive),7.4 µM (inactive),9.06 µM (inactive),8.15 µM (inactive),12 µM (inactive),11.4 µM (inactive),14.7 µM (inactive),6.28 µM (inactive),10.6 µM (inactive),12.3 µM (inactive),< 0.01 µM (active),14.2 µM (inactive),14.2 µM (inactive),14.8 µM (inactive),–
ClCCN1CCC2(CC1)SSC1(CCN(CCCl)CC1)S2,63.4 µM (inactive),40.5 µM (inactive),15 µM (inactive),45.9 µM (inactive),36.2,41.5 µM (inactive),–,49.7 µM (inactive),29.3 µM (inactive),10.8 µM (inactive),42.4 µM (inactive),30.6 µM (inactive),–,65.6 µM (inactive),29.2 µM (inactive),35.2 µM (inactive),> 100 µM (inactive),> 100 µM (inactive),48 µM (inactive),35.8 µM (inactive)
O=C(/C=C/c1ccc(O)c(O)c1)OCc1ccccc1 [BENZYL CAFFEATE],20.5 µM (inactive),11.8 µM (inactive),–,13.4 µM (inactive),5.4,2.28 µM (inactive),31.3 µM (inactive),14.8 µM (inactive),12.8 µM (inactive),10.9 µM (inactive),9.73 µM (inactive),18.3 µM (inactive),12.1 µM (inactive),13.7 µM (inactive),11.8 µM (inactive),8.97 µM (inactive),6.37 µM (inactive),13.4 µM (inactive),27.6 µM (inactive),–
CC1(C)C(C#N)=[N+]([O-])C(C)(C)N1O,–,> 100 µM (inactive),33.5 µM (inactive),> 100 µM (inactive),> 100,35.5 µM (inactive),> 100 µM (inactive),> 100 µM (inactive),> 100 µM (inactive),> 100 µM (inactive),34.6 µM (inactive),> 100 µM (inactive),> 100 µM (inactive),> 100 µM (inactive),> 100 µM (inactive),> 100 µM (inactive),> 100 µM (inactive),> 100 µM (inactive),> 100 µM (inactive),–
NC(=O)N/N=C(\Cc1cc(=O)oc2cc(O)ccc12)C(=O)Nc1ccccc1C(N)=O,–,> 100 µM (inactive),> 100 µM (inactive),> 100 µM (inactive),> 100,> 100 µM (inactive),> 100 µM (inactive),> 100 µM (inactive),> 100 µM (inactive),> 100 µM (inactive),> 100 µM (inactive),> 100 µM (inactive),–,> 100 µM (inactive),–,> 100 µM (inactive),> 100 µM (inactive),> 100 µM (inactive),> 100 µM (inactive),> 100 µM (inactive)
C[C@H](N)C(=O)Nc1ccc(-c2nc3ccccc3s2)cc1Cl,–,15.4 µM (inactive),12 µM (inactive),11.6 µM (inactive),19.6,17.7 µM (inactive),0.0745 µM (active),16.5 µM (inactive),0.916 µM (active),17.9 µM (inactive),16.1 µM (inactive),16.4 µM (inactive),–,10.7 µM (inactive),22.1 µM (inactive),–,14 µM (inactive),15.7 µM (inactive),16.3 µM (inactive),16.3 µM (inactive)
O=C1OCC(CN2CCC(n3c(=O)[nH]c4ccccc43)CC2)=C1c1ccccc1,23.5 µM (inactive),29.4 µM (inactive),13.7 µM (inactive),25.5 µM (inactive),23,22 µM (inactive),25.4 µM (inactive),21.2 µM (inactive),6.78 µM (inactive),28.1 µM (inactive),15.3 µM (inactive),37.2 µM (inactive),6.03 µM (inactive),11.5 µM (inactive),22.8 µM (inactive),18.7 µM (inactive),23.4 µM (inactive),19.8 µM (inactive),26.1 µM (inactive),–
O=c1c(F)cn2c(=O)n1CCCCCCCn1c(=O)c(F)cn(c1=O)CCCCCCC2,32 µM (inactive),> 100 µM (inactive),76 µM (inactive),73.5 µM (inactive),> 100,> 100 µM (inactive),54.5 µM (inactive),> 100 µM (inactive),> 100 µM (inactive),0.59 µM (active),39.9 µM (inactive),> 100 µM (inactive),> 100 µM (inactive),> 100 µM (inactive),35.7 µM (inactive),30.1 µM (inactive),3.13 µM (inactive),> 100 µM (inactive),> 100 µM (inactive),–
O=C(/C=C/c1cc(Cl)cc(Cl)c1O)c1cccc(O)c1,> 100 µM (inactive),> 100 µM (inactive),29.9 µM (inactive),42.4 µM (inactive),41.5,20.4 µM (inactive),16.1 µM (inactive),52 µM (inactive),> 100 µM (inactive),40.2 µM (inactive),45.6 µM (inactive),31.8 µM (inactive),–,74.1 µM (inactive),28.6 µM (inactive),40.2 µM (inactive),43.5 µM (inactive),26.2 µM (inactive),41.9 µM (inactive),–
O=C(O)CCc1ccc2c(c1)CC1(Cc3ccccc3C1)C2,> 100 µM (inactive),58.5 µM (inactive),80 µM (inactive),> 100 µM (inactive),> 100,> 100 µM (inactive),79.8 µM (inactive),> 100 µM (inactive),–,–,> 100 µM (inactive),> 100 µM (inactive),> 100 µM (inactive),> 100 µM (inactive),> 100 µM (inactive),49.3 µM (inactive),–,> 100 µM (inactive),–,–
COc1cc(C=O)c(-c2cc3c(cc2C2(C)OCCS2)OCO3)c(OC)c1OC (stereo unspecified),7.85 µM (inactive),18.5 µM (inactive),7.59 µM (inactive),8 µM (inactive),8.22,12.5 µM (inactive),6.32 µM (inactive),21.9 µM (inactive),18.9 µM (inactive),36.5 µM (inactive),9.14 µM (inactive),13.6 µM (inactive),–,14.1 µM (inactive),12 µM (inactive),17.9 µM (inactive),4.4 µM (inactive),11.4 µM (inactive),30.2 µM (inactive),–
Nc1ncnc2c1ncn2C1CCC(COS(N)(=O)=O)C1 (stereo unspecified),–,> 100 µM (inactive),> 100 µM (inactive),57.5 µM (inactive),> 100,46.9 µM (inactive),> 100 µM (inactive),> 100 µM (inactive),> 100 µM (inactive),> 100 µM (inactive),> 100 µM (inactive),> 100 µM (inactive),93.5 µM (inactive),> 100 µM (inactive),> 100 µM (inactive),> 100 µM (inactive),> 100 µM (inactive),> 100 µM (inactive),> 100 µM (inactive),–
Cc1ccc2nc(-n3c(/C=C/c4ccccc4O)nc4ccccc4c3=O)sc2c1,> 100 µM (inactive),> 100 µM (inactive),16.5 µM (inactive),> 100 µM (inactive),> 100,> 100 µM (inactive),> 100 µM (inactive),> 100 µM (inactive),> 100 µM (inactive),–,> 100 µM (inactive),> 100 µM (inactive),–,> 100 µM (inactive),–,> 100 µM (inactive),> 100 µM (inactive),> 100 µM (inactive),> 100 µM (inactive),> 100 µM (inactive)
C=CCOC(OCC=C)/C(Br)=C/C,> 100 µM (inactive),17.6 µM (inactive),10.3 µM (inactive),13.5 µM (inactive),24,–,> 100 µM (inactive),31 µM (inactive),67.3 µM (inactive),28.8 µM (inactive),37 µM (inactive),> 100 µM (inactive),31.8 µM (inactive),34.9 µM (inactive),–,24.5 µM (inactive),> 100 µM (inactive),68.2 µM (inactive),> 100 µM (inactive),–
